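The compound was tested at five concentrations on cells cultured in 96-well plates, with a 48-hour exposure period. GI50 marks 50% less growth. TGI denotes the concentration required for complete inhibition of growth.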
Legend:
Assay in all cases: DTP human tumour cell line panel, 48 h
BT-549 breast = system: BT-549 breast
RPMI-8226 leukemia = system: RPMI-8226 leukemia
A549 NSCLC = system: A549 NSCLC
HCT-116 colon = system: HCT-116 colon
KM12 colon = system: KM12 colon
HS 578T breast = system: HS 578T breast
SN12C renal = system: SN12C renal
OVCAR-4 ovarian = system: OVCAR-4 ovarian
MDA-MB-231 breast = system: MDA-MB-231 breast

Row | Compound | TGI (BT-549 breast) | TGI (RPMI-8226 leukemia) | TGI (A549 NSCLC) | TGI (HCT-116 colon) | TGI (KM12 colon) | TGI (HS 578T breast) | TGI (SN12C renal) | TGI (OVCAR-4 ovarian) | TGI (MDA-MB-231 breast) | GI50 (BT-549 breast) | GI50 (RPMI-8226 leukemia) | GI50 (A549 NSCLC) | GI50 (HCT-116 colon) | GI50 (KM12 colon) | GI50 (HS 578T breast) | GI50 (SN12C renal) | GI50 (OVCAR-4 ovarian) | GI50 (MDA-MB-231 breast)
1 | CC1(CCCC2(C)CCNC2=O)OCCO1 (configuration not stated) | > 10 µM | > 10 µM | > 10 µM | > 10 µM | > 10 µM | > 10 µM | > 10 µM | > 10 µM | > 10 µM |  |  |  |  |  |  |  |  | 
2 | COC12C=C/C(=C(/C(=O)OCc3ccncn3)C(=O)CCCCCCCCC3(OC)C=C/C(=C(/C(=O)OCc4ccncn4)C(=O)CCCCCCCC1)O3)O2 | 0.78 µM | 0.995 µM | 1.49 µM | 1.09 µM | 0.499 µM | 5.11 µM | 1.12 µM | 2.16 µM | > 100 µM | 0.225 µM | 0.263 µM | 0.363 µM | 0.266 µM | 0.227 µM | 0.402 µM | 0.297 µM | 0.317 µM | 0.335 µM
3 | CC(C)(C)c1cc(C(O)(C(=O)O)C(=O)O)cc(C(C)(C)C)c1O | > 100 µM | > 100 µM | > 100 µM | > 100 µM | > 100 µM | > 100 µM | > 100 µM | > 100 µM | > 100 µM |  |  |  |  |  |  |  |  | 
4 | COc1cc2c(cc1OCCCC(=O)Nc1cc(C(=O)Nc3cc(C(=O)Nc4cc(C(=O)NCCCN(C)C)n(C)c4)n(C)c3)n(C)c1)N=C[C@@H]1CCCN1C2=O | 4.91 µM | 14.6 µM | 36.1 µM | 3.45 µM | > 52.2 µM | > 25.2 µM | 2.63 µM | 3.15 µM | 5.53 µM |  |  |  |  |  |  |  |  | 
5 | Cc1cc(NS(=O)(=O)c2ccc(NC(=O)c3ccc4nc5ccccc5c(Nc5ccc(S(=O)(=O)N=C(N)N)cc5)c4c3)cc2)no1 | 46 µM | 71.9 µM | 31.4 µM | 35.6 µM | 32.2 µM | 72.7 µM | 34.4 µM | 31.4 µM | 29.4 µM |  |  |  |  |  |  |  |  | 
6 | NNC(=O)CC(=O)Nc1ccc(Cl)cc1 | > 100 µM | > 100 µM | > 100 µM | > 100 µM | > 100 µM | > 100 µM | > 100 µM | > 100 µM | > 100 µM |  |  |  |  |  |  |  |  | 
7 | O=C1NN=C(c2ccc(Cl)cc2)CC1C1C(=O)N(c2ccccc2)N=C1c1ccccc1 (configuration not stated) | 54.4 µM | > 100 µM | > 100 µM | 44.8 µM | > 100 µM | 93.9 µM | > 100 µM | 86.5 µM | > 100 µM |  |  |  |  |  |  |  |  | 
8 | COc1ccc2oc(S(=O)(=O)N3CC(CCl)c4ccc([N+](=O)[O-])cc43)cc2c1 (configuration not stated) | 16.4 µM | > 100 µM | 18.1 µM | 4.22 µM | 0.418 µM | > 100 µM | 14 µM | > 100 µM | 1.23 µM |  |  |  |  |  |  |  |  | 
9 | O=C1Cc2c(-c3ccc(Cl)cc3)cc(-c3ccccc3)nc2-c2ccccc2N1 | 50.7 µM | 60.8 µM | 23.2 µM | 15.3 µM | > 100 µM | 29.1 µM | 25 µM | 26.4 µM | 20.1 µM |  |  |  |  |  |  |  |  | 
10 | Cc1cc2c(cc1-c1cc3c(cc1C)C(C(C)C)=C(O)C(=O)/C3=C\Nc1nc(-c3ccccc3)cs1)/C(=C/Nc1nc(-c3ccccc3)cs1)C(=O)C(O)=C2C(C)C | 89 µM | > 100 µM | 57.2 µM | > 100 µM | > 100 µM | > 100 µM | 48.4 µM | 86.7 µM | 28.5 µM |  |  |  |  |  |  |  |  | 
11 | CC/C(Cl)=N\OC(=O)Nc1ccc(OC)cc1 | 3.17 µM | 5.59 µM | 32.6 µM | 12 µM | 31.6 µM | 52 µM | 11.4 µM | 30.3 µM | 17.3 µM |  |  |  |  |  |  |  |  | 
12 | O=C1COC(c2ccccc2O)=NN1CCCN1CCCC1 | > 100 µM | > 100 µM | > 100 µM | > 100 µM | > 100 µM | > 100 µM | > 100 µM | > 100 µM | > 100 µM |  |  |  |  |  |  |  |  | 
13 | O=C(Nc1ccccc1)c1cc2c(cc1Cl)Sc1nccn1S2(=O)=O | 60.7 µM | 70.5 µM | > 100 µM | > 54.4 µM | 54.4 µM | > 84.4 µM | > 100 µM | 99.9 µM | > 81.2 µM |  |  |  |  |  |  |  |  | 
14 | CCOC(=O)C(=[N+]=[N-])C(=O)C[N+]12CCN(CC1)CC2 | > 100 µM | > 100 µM | > 100 µM | > 100 µM | > 100 µM | > 100 µM | > 100 µM | > 100 µM | > 100 µM |  |  |  |  |  |  |  |  | 
15 | CCCC(Sc1nc(N)nc2nc[nH]c12)C(=O)O (configuration not stated) | > 100 µM | > 100 µM | > 100 µM | > 100 µM | > 100 µM | > 100 µM | > 100 µM | > 100 µM | > 100 µM |  |  |  |  |  |  |  |  | 
16 | O=[N+]([O-])C(/C(Cl)=C(/Cl)N1CCOCC1)=C1\NCCO1 | > 100 µM | > 100 µM | > 100 µM | > 100 µM | > 100 µM | > 100 µM | > 100 µM | > 100 µM | > 100 µM |  |  |  |  |  |  |  |  | 
17 | COc1ccc(-c2oc3ccc(C)cc3c(=O)c2O)cc1 | > 100 µM | > 100 µM | > 100 µM | > 100 µM | > 100 µM | > 100 µM | > 100 µM | > 100 µM | > 100 µM |  |  |  |  |  |  |  |  | 
18 | O=C(O)CC(NC(=O)Nc1ccc([N+](=O)[O-])cc1)C(=O)Nc1ccc([N+](=O)[O-])cc1 (configuration not stated) | > 100 µM | > 100 µM | > 100 µM | > 100 µM | > 100 µM | > 100 µM |  | > 100 µM | > 100 µM |  |  |  |  |  |  |  |  | 
19 | CC1(C)C2CCC1(CS(=O)(=O)Nc1ccccc1)C(=O)C2 (configuration not stated) | > 100 µM | > 100 µM | > 100 µM | > 100 µM | > 100 µM | > 100 µM | > 100 µM | > 100 µM | > 100 µM |  |  |  |  |  |  |  |  | 
20 | CC(=O)N1N=C(c2c(O)ccc3ccccc23)CC1C(=O)c1ccco1 (configuration not stated) | 45 µM | 57.2 µM | > 100 µM | 50.3 µM | > 100 µM | > 100 µM | > 100 µM | > 100 µM | 74.6 µM |  |  |  |  |  |  |  |  | 
21 | COCn1c2ccc(OC(C)=O)cc2c2c(=O)oc(C)nc21 | > 100 µM | > 100 µM | > 100 µM | > 100 µM | > 100 µM | > 100 µM | > 100 µM | > 100 µM | > 100 µM |  |  |  |  |  |  |  |  | 

From PubChem BioAssay (NCI)
